Results taken from publication PMC4821163 (Organic letters, 2016).

Key:
MDA-MB-231 = type: cell-based; details: IC50 MCF-10A divided by IC50 MDA-MB-231
MCF7 = type: cell-based; details: IC50 MCF-10A divided by IC50 MCF7
HeLa = type: cell-based; details: for Selectivity index (SI) over MCF-10A cells: IC50 MCF-10A divided by IC50 HeLa
U937 = type: cell-based; details: for Selectivity index (SI) over MCF-10A cells: IC50 MCF-10A divided by IC50 U937
Jurkat = type: cell-based; details: for Selectivity index (SI) over MCF-10A cells: IC50 MCF-10A divided by IC50 Jurkat
MCF-10A = type: cell-based; details: for Selectivity index (SI), overall statement: tested cancer cell lines, MCF-10A as reference nontumor cell line
NIH/3T3 = type: cell-based; details: read-out: Cell cytotoxicity IC50; NIH/3T3 nontumor cell line
cancer cell lines = details: several cancer cell lines; cited from earlier work

| SMILES | Selectivity index (SI) over MCF-10A cells (MDA-MB-231) | Selectivity index (SI) over MCF-10A cells (MCF7) | Selectivity index (SI) over MCF-10A cells (HeLa) | IC50 (HeLa; read-out: Cell cytotoxicity IC50, HeLa cells) | Selectivity index (SI) over MCF-10A cells (U937) | IC50 (U937; read-out: Cell cytotoxicity IC50, U937 cells) | Selectivity index (SI) over MCF-10A cells (Jurkat) | IC50 (Jurkat; read-out: Cell cytotoxicity IC50, Jurkat cells) | IC50 (MCF-10A; read-out: Cell cytotoxicity IC50, MCF-10A nontumor cell line) | Selectivity index (SI), overall statement (MCF-10A) | IC50 (NIH/3T3) | IC50 values against cancer cell growth, in words (cancer cell lines) |
| --- | --- | --- | --- | --- | --- | --- | --- | --- | --- | --- | --- | --- |
| C/C=C(\C)C(=O)O[C@@H]1[C@@H](O)[C@@H]2O[C@H]3[C@H](O[C@@H](CCCCC)CCCCCCC(=O)CCC(=O)OC[C@@H](O2)[C@H]1OC(=O)/C=C/c1ccccc1)O[C@H](C)[C@H](OC(C)=O)[C@@H]3O [ipomoeassin F] | 0.83 | 0.12 | 0.33 | 16.4 nM | 1 | 5.4 nM | 0.89 | 6.1 nM | 5.4 nM | < 1 | 16.8 nM | single-digit nanomolar range |
| CC(=O)O[C@H]1C(=O)[C@@]2(C)[C@H]([C@H](OC(=O)c3ccccc3)[C@]3(O)C[C@H](OC(=O)[C@H](O)[C@@H](NC(=O)c4ccccc4)c4ccccc4)C(C)=C1C3(C)C)[C@]1(OC(C)=O)CO[C@@H]1C[C@@H]2O [paclitaxel] | 8.04 | 3.73 | 25.6 |  | 15.2 |  | 14.6 |  |  | good selectivity in general |  |  |
